According to patent US20220144812A1, “QUINOLINE DERIVATIVES AND THEIR USE FOR THE TREATMENT OF CANCER” (Epizyme, Inc., priority 2019, published 2022):

Key:
647V cells = experiment: High throughput proliferation (HTP) assay; format: cell-based; details: Homo sapiens, 647-V, high throughput proliferation; read-out: CREBBP HTP IC50
Summary of the method: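 Proliferation IC50 (micromolar) derived from a 7-day CellTiter-Glo viable-cell readout in 647V cells exposed, in triplicate, to rising compound concentrations; cells grown in DMEM plus 15% heat-inactivated FBS at 37° C under 5% CO2.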

CREBBP (1084-1701) = target: T1, CREBBP (1084-1701) (Homo sapiens, UniProt Q92793); experiment: Biochemical assay for CREBBP (1084-1701), SAMDI; details: SAMDI, read-out: CREBBP Biochemistry IC50
T1 construct: measured in the following biochemical assay using CREBBP (1084-1701); purchased
Summary of the method: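 Acetyltransferase activity measured by SAMDI mass spectrometry after capture on biochip. Enzyme sat with compound 30 min at RT before acetyl-CoA and biotinylated H3 11-25 (K14R, K23R) peptide were added for 30 min at RT. Formic acid quench, bicarbonate neutralisation; IC50 values reported.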

EP300 (P300(1048-1664)) = target: T2, EP300 (P300(1048-1664)) (Homo sapiens, UniProt Q09472); experiment: Biochemical assay for EP300, SAMDI; details: EP300, SAMDI; read-out: EP300 Biochemistry IC50
T2 construct: P300(1048-1664)
T2 sequence (Q09472 1048-1664): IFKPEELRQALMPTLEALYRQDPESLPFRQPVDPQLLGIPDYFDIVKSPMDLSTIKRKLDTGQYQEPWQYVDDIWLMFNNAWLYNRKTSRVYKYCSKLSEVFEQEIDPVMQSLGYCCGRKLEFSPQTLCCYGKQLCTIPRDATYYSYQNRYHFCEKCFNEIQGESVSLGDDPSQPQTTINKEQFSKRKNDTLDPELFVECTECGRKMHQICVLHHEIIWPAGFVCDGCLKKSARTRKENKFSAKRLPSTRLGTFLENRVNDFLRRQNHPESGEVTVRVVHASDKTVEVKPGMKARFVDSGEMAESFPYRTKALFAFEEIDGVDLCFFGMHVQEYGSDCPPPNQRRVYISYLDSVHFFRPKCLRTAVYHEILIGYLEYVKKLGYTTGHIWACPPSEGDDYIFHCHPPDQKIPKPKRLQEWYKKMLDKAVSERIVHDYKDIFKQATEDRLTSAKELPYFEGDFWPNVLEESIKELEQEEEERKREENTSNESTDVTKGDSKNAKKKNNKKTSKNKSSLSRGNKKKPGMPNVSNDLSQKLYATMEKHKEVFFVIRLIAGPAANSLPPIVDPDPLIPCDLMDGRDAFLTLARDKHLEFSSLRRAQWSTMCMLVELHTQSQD
From the text: The following example describes materials and methods relating to a biochemical assay for EP300. IC50 values (micromolar (μM)) are summarized in Table 1, Table 2, and Table 3 under the column labeled: “EP300 Biochemistry IC50 (micromolar).”

[1] = test system: H3K18Ac in HB-CLS-2 cells; experiment: H3K18AC in-cell western (ICW) assay; format: cell-based; details: H3K18Ac in-cell western; read-out: CREBBP ICW IC50
Summary of the method: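 In-cell western: after methanol fixation, blocking, overnight 4° C anti-H3K18Ac staining, then 800CW secondary plus DRAQ5 for DNA content, integrated intensities were scanned at 800 and 700 nm. Before this, compound exposure lasted 2 hr at 37° C in HB-CLS-2 cells plated 16–24 hours earlier. Values expressed as IC50 (μM).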

T1 sequence (Q92793 1084-1701): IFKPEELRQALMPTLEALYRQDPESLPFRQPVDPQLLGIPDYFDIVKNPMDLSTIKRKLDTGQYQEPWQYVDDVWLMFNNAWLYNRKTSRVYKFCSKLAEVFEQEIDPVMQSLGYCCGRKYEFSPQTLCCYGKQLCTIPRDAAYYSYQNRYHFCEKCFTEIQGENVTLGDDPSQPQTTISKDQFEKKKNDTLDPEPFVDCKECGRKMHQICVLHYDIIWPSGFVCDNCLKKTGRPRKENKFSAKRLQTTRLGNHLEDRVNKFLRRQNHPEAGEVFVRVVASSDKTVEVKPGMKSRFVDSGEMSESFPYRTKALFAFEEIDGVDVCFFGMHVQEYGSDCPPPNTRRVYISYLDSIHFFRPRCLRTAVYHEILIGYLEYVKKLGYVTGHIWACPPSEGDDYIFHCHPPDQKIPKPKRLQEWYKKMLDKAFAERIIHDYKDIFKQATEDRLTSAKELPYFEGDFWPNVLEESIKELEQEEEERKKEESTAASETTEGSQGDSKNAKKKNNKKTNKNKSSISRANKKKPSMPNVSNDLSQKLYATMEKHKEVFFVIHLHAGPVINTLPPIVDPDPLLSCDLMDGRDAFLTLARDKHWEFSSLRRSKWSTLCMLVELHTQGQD

| SMILES | IC50 (647V cells) [nM] | IC50 (CREBBP (1084-1701)) [nM] | IC50 (EP300 (P300(1048-1664))) [nM] | IC50 [1] [nM] |
| --- | --- | --- | --- | --- |
| CCn1ncc(CN(C)C(=O)c2cc(-c3cc(CNC)cc(C)n3)nc3ccc(Cl)cc23)c1C [Compound 473] | 380 | 322 | 392 | 730 |
| CCn1ncc(CN(C)C(=O)c2cc(-c3cnc(N)c(C)n3)nc3ccc(Cl)cc23)c1C [Compound 474] | 12800 | 22800 | 14500 | 6530 |
| CCn1ncc(CN(C)C(=O)c2nc(-c3cc(C#N)c4nc[nH]c4c3)nc3ccc(COC)cc23)c1C [Compound 475] | 757 | 920 | 974 | 888 |
| CCn1ncc(CN(C)C(=O)c2nc(-c3cc(C)cc(N[C@H]4CCNC4)c3)nc3ccc(Cl)cc23)c1C [Compound 476] | 204 | 28.5 | 6.4 | 378 |
| CCc1ncc(CN(C)C(=O)c2cc(-c3ccc(OCC(O)CNC)c(C)n3)nc3ccc(COC)cc23)n1C (stereo not shown) [Compound 477] | 1280 | 141 | 47.6 | 2070 |
| CCn1ncc(CN(C)C(=O)c2nc(-c3cc(C)cc(NC4CCNC4)c3)nc3ccc(COC)cc23)c1C (stereo not shown) [Compound 479] | 43.6 | 18 | 10.1 | 70.8 |
| CCc1nc(-c2cc(C(=O)N(C)Cc3cnc(CC)n3C)c3cc(COC)ccc3n2)ccc1NCCNC [Compound 486] | 89.5 | 59.8 | 30.1 | 314 |
| CCn1ncc(CN(C)C(=O)c2cc(-c3ccc(NCCNC)c(C)n3)nc3cc(COC)ccc23)c1C [Compound 492] | 1670 | 7240 | 5990 | 2400 |
| CCn1ncc(CN(C)C(=O)c2nc(-c3cc(-c4ncc[nH]4)n(C)n3)nc3ccc(Cl)cc23)c1C [Compound 495] | 140 | 29.3 | 16.3 | 153 |
| CCn1ncc(CN(C)C(=O)c2cc(-c3ccc(OCC(O)CNC)c(C)n3)nc3ccc(COC)cc23)c1C (stereo not shown) [Compound 496] | 689 | 167 | 59.9 | 937 |
| CCn1ncc(CN(C)C(=O)c2cc(-c3ccc(N4CC(N(C)C)C4)c(C)n3)nc3ccc(Cl)cc23)c1C [Compound 497] | 2560 | 846 | 661 | 1630 |
| CCn1ncc(CN(C)C(=O)c2nc(-c3ccc(OCCNC)c(Cl)c3)nc3ccc(C4COC4)cc23)c1C [Compound 498] | 2880 | 5080 | 4980 | 5550 |
| CCn1ncc(CN(C)C(=O)c2nc(-c3cc(N)c4cn[nH]c4c3)nc3ccc(COC)cc23)c1C [Compound 499] | 183 | 14.9 | 3.5 | 137 |
| CCc1ncc(CN(C)C(=O)c2nc(-c3cc(N)c4cn[nH]c4c3)nc3ccc(COC)cc23)n1C [Compound 500] | 409 | 25.3 | 28.5 | 371 |
| CCc1ncc(CN(C)C(=O)c2nc(-c3cc(C)cc(NC4CCNC4)c3)nc3ccc(COC)cc23)n1C (stereo not shown) [Compound 501] | 1150 | 148 | 36.8 | 3890 |
| CCn1ncc(CN(C)C(=O)c2cc(-c3ccc(N(C)C)nn3)nc3ccc(Cl)cc23)c1C [Compound 502] | 9010 | 10600 | 4850 | 2530 |
| CCn1ncc(CN(C)C(=O)c2nc(-c3ccc(OCCNC)c(Cl)c3)nc3ccc(CS(C)(=O)=O)cc23)c1C [Compound 503] | 7610 | 9850 | 9280 | 17100 |
| CCn1ncc(CN(C)C(=O)c2cc(-c3ccc(NCCNC)nn3)nc3ccc(Cl)cc23)c1C [Compound 504] | 3730 | 5780 | 2000 | 3990 |
| CCn1ncc(CN(C)C(=O)c2cc(-c3ccc(N(C)CCN)nn3)nc3ccc(Cl)cc23)c1C [Compound 505] | 5960 | 4520 | 3280 | 2340 |

| SMILES | IC50 (647V cells) [nM] | IC50 (CREBBP (1084-1701)) [nM] | IC50 (EP300 (P300(1048-1664))) [nM] | IC50 [1] [nM] |
| --- | --- | --- | --- | --- |
| CCn1ncc(CN(C)C(=O)c2cc(-c3cc4n[nH]cc4cn3)nc3ccc(COC)cc23)c1C [Compound 506] | 567 | 64.8 | 7.6 | 185 |
| CCn1ncc(CN(C)C(=O)c2nc(-c3cc4c(N)nn(CCNC)c4cc3C)nc3ccc(Cl)cc23)c1C [Compound 507] | 1010 | 556 | 1360 | 1600 |
| CCn1ncc(CN(C)C(=O)c2nc(-c3cc4c(N)[nH]nc4cc3C)nc3ccc(COC)cc23)c1C [Compound 508] | 212 | 46.3 | 22.4 | 174 |
| CCc1ncc(CN(C)C(=O)c2cc(-c3cc4n[nH]cc4cn3)nc3ccc(COC)cc23)n1C [Compound 510] | 465 | 62.9 | 9.3 | 225 |
| CCc1ncc(CN(C)C(=O)c2cc(-c3cc(C(=O)NC)n(C)n3)nc3ccc(Cl)cc23)n1C [Compound 512] | 110 | 15.2 | 4 | 104 |
| CCc1ncc(CN(C)C(=O)c2cc(-c3ccc(NCCNC)c(C)n3)nc3ccc(COC)cc23)n1C [Compound 513] | 203 | 68.4 | 35 | 470 |
| CCc1ncc(CN(C)C(=O)c2nc(-c3cc(C)c4[nH]c(=O)[nH]c4c3)nc3ccc(Cl)cc23)n1C [Compound 514] | 363 | 8.96 | 2.7 | 470 |
| CCn1ncc(CN(C)C(=O)c2nc(-c3cc4c(N)n(CCNC)nc4cc3C)nc3ccc(Cl)cc23)c1C [Compound 515] | 78.5 | 70.5 | 49.4 | 166 |
| CCn1ncc(CN(C)C(=O)c2nc(-c3cc(C)nc(NCCNC)c3)nc3ccc(COC)cc23)c1C [Compound 516] | 125 | 58.4 | 46.5 | 194 |
| CCc1ncc(CN(C)C(=O)c2cc(-c3ccc(NC4CCOCC4)c(C)n3)nc3ccc(Cl)cc23)n1C [Compound 517] | 107 | 36.1 | 12.1 | 159 |
| CCn1ncc(CN(C)C(=O)c2cc(-c3cc4c(N)n[nH]c4c(C)n3)nc3ccc(Cl)cc23)c1C [Compound 519] | 326 | 31.4 | 107 | 253 |
| CCn1ncc(CN(C)C(=O)c2cc(-c3cc(C(=O)NC)n(C)n3)nc3ccc(COC)cc23)c1C [Compound 520] | 650 | 80.7 | 23.8 | 334 |
| CCn1ncc(CN(C)C(=O)c2cc(-c3ccc(NCCO)c(C)n3)nc3ccc(Cl)cc23)c1C [Compound 521] | 110 | 10 | 7.1 | 80.4 |
| CCn1ncc(CN(C)C(=O)c2nc(-c3nc4c[nH]nc4cc3C)nc3ccc(Cl)cc23)c1C [Compound 522] | 8060 | 26000 | 16600 | 16600 |
| CCc1ncc(CN(C)C(=O)c2nc(-c3cc(Cl)c4[nH]cnc4c3)nc3ccc(COC)cc23)n1C [Compound 523] | 34.7 | 6.22 | 2.7 | 74.1 |
| CCn1ncc(CN(C)C(=O)c2nc(-c3cc(C)c4c(N)n[nH]c4c3)nc3ccc(COC)cc23)c1C [Compound 524] | 163 | 16 | 4 | 81.4 |
| CCn1ncc(CN(C)C(=O)c2cc(-c3cnc(NCCNC)c(C)n3)nc3ccc(Cl)cc23)c1C [Compound 525] | 313 | 54 | 142 | 260 |
| CCc1ncc(CN(C)C(=O)c2nc(-c3cc(C)c4c(N)[nH]nc4c3)nc3ccc(Cl)cc23)n1C [Compound 526] | 72 | 6.42 | 2 | 46.5 |
